Measurements from patent US20100205696A1, “NOVEL HERBICIDE RESISTANCE GENE” (UNIVERSITY OF TENNESSEE RESEARCH FOUNDATION, priority 2009, published 2010).

Experiments:
[1] = system: PtJBMT; test: Radiochemical methyltransferase assay (detoxification activity) with PtJBMT; type: biochemical; conditions: 1 mM substrate, 3 μM 14C-SAM, 25° C., 30 min; relative to the activity of PtJBMTm3 with jasmonic acid set as 1
Method: (§1) The detoxification activity of PtJBMTm3 was determined using radiochemical methyltransferase assays. The assays were performed with a 50 μL volume containing 50 mM Tris-HCl, pH 7.5, 1 mM of individual auxin mimic herbicides dissolved in water, and 3 μM ^14C—S-Adenosyl methionine (SAM) with a specific activity of 51.4 mCi/mmol (Perkin Elmer, Boston, Mass.). The assay was initiated by addition of SAM, maintained at 25° C. for 30 min, and stopped by addition of […] (150 μL). After phase separation by one min centrifugation at 14,000 g, the upper organic phase was counted using a liquid scintillation counter (Beckman Coulter, Fullerton, Calif.) as previously described (D'Auria et al., 2002). Radioactivity counts in the organic phase indicated the amount of synthesized methyl esters, which are the detoxificated products of individual auxin mimic herbicides. The relative assay activities of PtJBMT and PtJBMTm3 with auxin-based herbicides is illustrated in Table 2 (the activity of PtJBMTm3 with jasmonic acid was set as 1).

[2] = system: PtJBMTm3; test: Radiochemical methyltransferase assay (detoxification activity) with PtJBMTm3; type: biochemical; conditions: 1 mM substrate, 3 μM 14C-SAM, 25° C., 30 min; for Relative assay activity of PtJBMT M3: relative to the activity of PtJBMTm3 with jasmonic acid set as 1
Method: as §1

Structure (SMILES): O=C(O)c1c(Cl)ccc(Cl)c1Cl [2,3,6 Trichloro-benzoic acid]
- Relative assay activity of PtJBMT [1]: 15.0%
- Relative assay activity of PtJBMT M3 [2]: 75.4%

Structure (SMILES): O=C(O)COc1cc(Cl)c(Cl)cc1Cl [2,4,5-T]
- Relative assay activity of PtJBMT [1]: 0.4%
- Relative assay activity of PtJBMT M3 [2]: 25.5%

Structure (SMILES): O=C(O)COc1ccc(Cl)cc1Cl [2,4-D, 2,4-dichlorophenoxyacetic acid]
- Relative assay activity of PtJBMT [1]: 1.7%
- Relative assay activity of PtJBMT M3 [2]: 57.5%

Structure (SMILES): O=C(O)CCCOc1ccc(Cl)cc1Cl [2,4-DB]
- Relative assay activity of PtJBMT [1]: 0.5%
- Relative assay activity of PtJBMT M3 [2]: 38.7%

Structure (SMILES): O=C(O)Cc1c[nH]c2cccc(Cl)c12 [4-Cl-IAA]
- Relative assay activity of PtJBMT [1]: 1.1%
- Relative assay activity of PtJBMT M3 [2]: 33.6%

Structure (SMILES): O=C(O)CCCc1c[nH]c2ccccc12 [IBA]
- Relative assay activity of PtJBMT [1]: 0.8%
- Relative assay activity of PtJBMT M3 [2]: 30.3%

Structure (SMILES): CC/C=C\C[C@H]1C(=O)CC[C@@H]1CC(=O)O [Jasmonic acid]
- Relative assay activity of PtJBMT [1]: 85.1%
- Relative assay activity of PtJBMT M3 (reference, set as 1) ([2]; reference value set as 1): 1

Structure (SMILES): Cc1cc(Cl)ccc1OCC(=O)O [MCPA]
- Relative assay activity of PtJBMT [1]: 3.5%
- Relative assay activity of PtJBMT M3 [2]: 70.0%

Structure (SMILES): Cc1cc(Cl)ccc1OCCCC(=O)O [MCPB]
- Relative assay activity of PtJBMT [1]: 0.1%
- Relative assay activity of PtJBMT M3 [2]: 11.0%

Structure (SMILES): O=C(O)Cc1cccc2ccccc12 [NAA]
- Relative assay activity of PtJBMT [1]: 7.8%
- Relative assay activity of PtJBMT M3 [2]: 91.8%

Structure (SMILES): O=C(O)Cc1ccccc1 [PAA]
- Relative assay activity of PtJBMT [1]: 0.8%
- Relative assay activity of PtJBMT M3 [2]: 58.3%

Structure (SMILES): CC(C)(Oc1ccc(Cl)cc1)C(=O)O [PCIB]
- Relative assay activity of PtJBMT [1]: 8.0%
- Relative assay activity of PtJBMT M3 [2]: 96.9%

Structure (SMILES): O=C(O)c1nc(Cl)ccc1Cl [clopyralid]
- Relative assay activity of PtJBMT [1]: 17.1%
- Relative assay activity of PtJBMT M3 [2]: 94.1%

Structure (SMILES): COc1c(Cl)ccc(Cl)c1C(=O)O [dicamba]
- Relative assay activity of PtJBMT [1]: 2.3%
- Relative assay activity of PtJBMT M3 [2]: 73.9%

Structure (SMILES): CC(Oc1ccc(Cl)cc1Cl)C(=O)O (centres unmarked) [dichlorprop]
- Relative assay activity of PtJBMT [1]: 7.3%
- Relative assay activity of PtJBMT M3 [2]: 73.0%

Structure (SMILES): Nc1c(Cl)c(F)nc(OCC(=O)O)c1Cl [fluroxypyr]
- Relative assay activity of PtJBMT [1]: 0.6%
- Relative assay activity of PtJBMT M3 [2]: 4.2%

Structure (SMILES): Cc1cc(Cl)ccc1OC(C)C(=O)O (centres unmarked) [mecoprop]
- Relative assay activity of PtJBMT [1]: 12.8%
- Relative assay activity of PtJBMT M3 [2]: 87.5%

Structure (SMILES): Nc1c(Cl)c(Cl)nc(C(=O)O)c1Cl [picloram]
- Relative assay activity of PtJBMT [1]: 3.7%
- Relative assay activity of PtJBMT M3 [2]: 78.1%

Structure (SMILES): O=C(O)c1c(Cl)ccc2cc(Cl)cnc12 [quinclorac]
- Relative assay activity of PtJBMT [1]: 11.2%
- Relative assay activity of PtJBMT M3 [2]: 91.3%
